Test [1] has as its target T1, HSP90a protein (Homo sapiens, UniProt P07900).
T1 construct: purchased BPS Bioscience 50298
Kind of test: HSP90α-binding fluorescent polarization (FP) assay, BODIPY-labeled RNK04010 probe. The conditions noted are these: FP competition with RNK04010 (BODIPY-labeled), 5 nM, 300 min at 25° C. The method, boiled down: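 Test compounds (2.5-fold serial dilution, 20 μM to 5.2 nM) competed with a fluorescent tracer for N-terminal HSP90a, with fluorescence polarization as the read-out. FITC-geldanamycin tracer was used at 5 nM final with 120 min incubation at 25° C; BODIPY-labeled RNK04010 was used at 5 nM final with 300 min incubation.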

For test [2], the system named is MIA PaCa-2 human pancreatic carcinoma. Briefly: MIA PaCa-2 CCK-8 proliferation assay. The format is cell-based. The conditions noted are these: Homo sapiens, MIA PaCa-2, 72 h, MIA PaCa-2 cells. The method, boiled down:
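Three KRAS(G12C) lines are used, MIA PaCa-2 at two mutant copies and the NSCLC lines NCI-H358 and NCI-H23 at one. Each compound is titrated 3-fold from 20 μM to 1.02 nM, and proliferation is scored by CCK-8.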
Background: Tetrazolium dyes change colour on reduction, which living cells bring about.

Test [3] addresses KRAS(G12C) (Homo sapiens, UniProt P01116, G12C). Briefly: KRAS(G12C)/SOS1 homogeneous time-resolved fluorescence (HTRF) assay. Further details: purchased Cisbio 63ADK000CB16PEG. The conditions noted are these: absence of GTP, 4° C. for 3 hr, read-out: KRAS (G12C) binding. The method, boiled down: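 HTRF kit measuring compound-induced block of KRAS(G12C)-SOS1 interaction without GTP. Compounds tested as 3-fold serial dilutions down to 1.02 nM, incubated with reaction components 3 h at 4 °C in sealed plates before fluorescence read.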
For orientation: TR-FRET usually uses a lanthanide donor and a delayed reading to cut background.

Some results are limits rather than exact numbers.

KRAS(G12C), sequence (P01116 1-188 isoform P01116-2 G12C): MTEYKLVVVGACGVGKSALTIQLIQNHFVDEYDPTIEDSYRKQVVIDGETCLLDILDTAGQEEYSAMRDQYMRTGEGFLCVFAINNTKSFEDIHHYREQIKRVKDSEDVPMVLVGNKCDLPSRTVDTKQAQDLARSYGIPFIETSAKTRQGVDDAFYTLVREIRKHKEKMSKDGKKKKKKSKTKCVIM

Broadly, the EC50 is the concentration needed to bring the measured effect to its halfway point. High values mean a need for much substance, low ones an effect from little substance. Regarding `C=CC(=O)N1CCN(c2nc(OCCN3CCN(Cc4cc(C(C)C)c(O)cc4O)CC3)nc3c2CCN(c2cccc4cccc(Cl)c24)C3)C[C@@H]1CC#N` [Compound 216, (S)-2-(1-acryloyl-4-(7-(8-chloronaphthalen-1-yl)-2-(2-(4-(2,4-dihydroxy-5-isopropylbenzyl)piperazin-1-yl)ethoxy)-5,6,7,8-tetrahydropyrido[3,4-d]pyrimidin-4-yl)piperazin-2-yl)acetonitrile], the IC50 in test [1] is 100 to 1000 nM; in test [3], less than 100 nM. The same molecule returned an EC50 in test [2] of 100 to 1000 nM.
As for `C=CC(=O)N1CCN(c2nc(OCC3CN(C(=O)C4CCN(Cc5ccc(-n6c(O)nnc6-c6cc(C(C)C)c(O)cc6O)cc5)CC4)C3)nc3c2CCN(c2cccc4cccc(Cl)c24)C3)C[C@@H]1CC#N` [Compound 188, (S)-2-(1-acryloyl-4-(7-(8-chloronaphthalen-1-yl)-2-((1-(1-(4-(3-(2,4-dihydroxy-5-isopropylphenyl)-5-hydroxy-4H-1,2,4-triazol-4-yl)benzyl)piperidine-4-carbonyl)azetidin-3-yl)methoxy)-5,6,7,8-tetrahydropyrido[3,4-d]pyrimidin-4-yl)piperazin-2-yl)acetonitrile, trifluoroacetic acid], the IC50 was less than 100 nM in test [1] and greater than 1000 nM in test [3]. Moreover, the concentration giving a half-maximal response (EC50) in test [2] fell in the range of 100 to 1000 nM.
Regarding `C=CC(=O)N1CCN(c2nc(OCCN3CCC(C(=O)N4CCC(Cc5ccc(-n6c(C(=O)NCC(F)(F)F)nnc6-c6cc(C(C)C)c(O)cc6O)cc5)CC4)CC3)nc3c2CCN(c2cccc4cccc(Cl)c24)C3)C[C@@H]1CC#N` [Compound 212, (S)-4-(4-((1-(1-(2-((4-(4-acryloyl-3-(cyanomethyl)piperazin-1-yl)-7-(8-chloronaphthalen-1-yl)-5,6,7,8-tetrahydropyrido[3,4-d]pyrimidin-2-yl)oxy)ethyl)piperidine-4-carbonyl)piperidin-4-yl)methyl)phenyl)-5-(2,4-dihydroxy-5-isopropylphenyl)-N-(2,2,2-trifluoroethyl)-4H-1,2,4-triazole-3-carboxamide], the IC50 was less than 100 nM in test [1] and 100 to 1000 nM in test [3]. The EC50 in test [2] lay in the range of 100 to 1000 nM.
Regarding `C=CC(=O)N1CCN(c2nc(OC[C@@H]3CC[C@H](C(=O)N4CCN(C(=O)C5CCN(Cc6ccc(-n7c(C(=O)NCC(F)(F)F)nnc7-c7cc(C)c(O)cc7O)cc6)CC5)CC4)N3C)nc3c2CCN(c2cccc4cccc(Cl)c24)C3)C[C@@H]1CC#N` [Compound 332, 4-{4-[(4-{4-[(2R,5S)-5-({[7-(8-chloronaphthalen-1-yl)-4-[(3S)-3-(cyanomethyl)-4-(prop-2-enoyl)piperazin-1-yl]-5H,6H,8H-pyrido[3,4-d]pyrimidin-2-yl]oxy}methyl)-1-methylpyrrolidine-2-carbonyl]piperazine-1-carbonyl}piperidin-1-yl)methyl]phenyl}-5-(2,4-dihydroxy-5-methylphenyl)-N-(2,2,2-trifluoroethyl)-1,2,4-triazole-3-carboxamide], the IC50 in test [1] and in test [3] was less than 100 nM throughout. The half-maximal effective concentration (EC50) in test [2] is less than 100 nM.
With `C=CC(=O)N1CCN(c2nc(OC[C@@H]3C[C@H](C(=O)N4CCN(Cc5ccc(-n6c(C(=O)NCC(F)(F)C(F)(F)F)nnc6-c6cc(C(C)C)c(O)cc6O)cc5)CC4)CN3C)nc3c2CCN(c2cccc4cccc(Cl)c24)C3)C[C@@H]1CC#N` [Compound 339, 4-[4-({4-[(3S,5S)-5-({[7-(8-chloronaphthalen-1-yl)-4-[(3S)-3-(cyanomethyl)-4-(pr-op-2-enoyl)piperazin-1-yl]-5H,6H,8H-pyrido[3,4-d]pyrimidin-2-yl]oxy}methyl)-1-methylpyrrolidine-3-carbonyl]piperazin-1-yl}methyl)phenyl]-5-(2,4-dihydroxy-5-isopropylphenyl)-N-(2,2,3,3,3-pentafluoropropyl)-1,2,4-triazole-3-carboxamide], the IC50 in test [1] was less than 100 nM; in test [3], 100 to 1000 nM. Further, the EC50 in test [2] lay in the range of 100 to 1000 nM.
Turning to `C=CC(=O)N1CCN(c2nc(OC[C@@H]3C[C@@H](NC(=O)C4CCN(Cc5ccc(-n6c(C(N)=O)nnc6-c6cc(C(C)C)c(O)cc6O)cc5)CC4)CN3C)nc3c2CCN(c2cccc4cccc(Cl)c24)C3)C[C@@H]1CC#N` [Compound 194, N-((3R,5S)-5-(((4-((S)-4-acryloyl-3-(cyanomethyl)piperazin-1-yl)-7-(8-chloronaphthalen-1-yl)-5,6,7,8-tetrahydropyrido[3,4-d]pyrimidin-2-yl)oxy)methyl)-1-methylpyrrolidin-3-yl)-1-(4-(3-carbamoyl-5-(2,4-dihydroxy-5-isopropylphenyl)-4H-1,2,4-triazol-4-yl)benzyl)piperidine-4-carboxamide], the IC50 in test [1] is less than 100 nM; in test [3], 100 to 1000 nM. This molecule also had an EC50 in test [2] of 100 to 1000 nM.
Consider `C=CC(=O)N1CCN(c2nc(OCCN3CCN(C(=O)C4CCN(Cc5ccc(-n6c(C(=O)NCC(F)(F)F)nnc6-c6cc(C)c(O)cc6O)cc5)CC4)CC3)nc3c2CCN(c2cccc4cccc(Cl)c24)C3)C[C@@H]1CC#N` [Compound 222, (S)-4-(4-((4-(4-(2-((4-(4-acryloyl-3-(cyanomethyl)piperazin-1-yl)-7-(8-chloronaphthalen-1-yl)-5,6,7,8-tetrahydropyrido[3,4-d]pyrimidin-2-yl)oxy)ethyl)piperazine-1-carbonyl)piperidin-1-yl)methyl)phenyl)-5-(2,4-dihydroxy-5-methylphenyl)-N-(2,2,2-trifluoroethyl)-4H-1,2,4-triazole-3-carboxamide], for which the values for the IC50 in test [1] and in test [3] were less than 100 nM and 100 to 1000 nM, respectively. The molecule also showed an EC50 in test [2] of 100 to 1000 nM.
With `C=CC(=O)N1CCN(c2nc(OC[C@@H]3C[C@@H](NC(=O)C4CCN(Cc5ccc(-n6c(C(=O)NCCN7CCN(C)CC7)nnc6-c6cc(C(C)C)c(O)cc6O)cc5)CC4)CN3C)nc3c2CCN(c2cccc4cccc(Cl)c24)C3)C[C@@H]1CC#N` [Compound 201, N-((3R,5S)-5-(((4-((S)-4-acryloyl-3-(cyanomethyl)piperazin-1-yl)-7-(8-chloronaphthalen-1-yl)-5,6,7,8-tetrahydropyrido[3,4-d]pyrimidin-2-yl)oxy)methyl)-1-methylpyrrolidin-3-yl)-1-(4-(3-(2,4-dihydroxy-5-isopropylphenyl)-5-((2-(4-methylpiperazin-1-yl)ethyl)carbamoyl)-4H-1,2,4-triazol-4-yl)benzyl)piperidine-4-carboxamide], the IC50 in test [1] was less than 100 nM; in test [3], 100 to 1000 nM. In test [2], this molecule displayed an EC50 greater than 1000 nM.
The matching figures for `C=CC(=O)N1CCN(c2nc(OC[C@@H]3C[C@H](N4CCC5(CCN(C(=O)C6CCN(Cc7ccc(-n8c(O)nnc8-c8cc(C(C)C)c(O)cc8O)cc7)CC6)CC5)CC4)CN3C)nc3c2CCN(c2cccc4cccc(Cl)c24)C3)C[C@@H]1CC#N` [Compound 318, 2-[(2S)-4-[7-(8-chloronaphthalen-1-yl)-2-{[(2S,4S)-4-{9-[1-({4-[3-(2,4-dihydroxy-5-isopropylphenyl)-5-hydroxy-1,2,4-triazol-4-yl]phenyl}methyl)piperidine-4-carbonyl]-3,9-diazaspiro[5.5]undecan-3-yl}-1-methylpyrrolidin-2-yl]methoxy}-5H,6H,8H-pyrido[3,4-d]pyrimidin-4-yl]-1-(prop-2-enoyl)piperazin-2-yl]acetonitrile]: less than 100 nM, less than 100 nM and 100 to 1000 nM.
Taken in the same sequence, the figures for `C=CC(=O)N1CCN(c2nc(OCCN3CCC4(CC3)CCN(Cc3cc(C(C)C)c(O)cc3O)CC4)nc3c2CCN(c2cccc4cccc(Cl)c24)C3)C[C@@H]1CC#N` [Compound 217, (S)-2-(1-acryloyl-4-(7-(8-chloronaphthalen-1-yl)-2-(2-(9-(2,4-dihydroxy-5-isopropylbenzyl)-3,9-diazaspiro[5.5]undecan-3-yl)ethoxy)-5,6,7,8-tetrahydropyrido[3,4-d]pyrimidin-4-yl)piperazin-2-yl)acetonitrile] were 100 to 1000 nM, less than 100 nM and greater than 1000 nM.
Take `C=CC(=O)N1CCN(c2nc(OC[C@@H]3CCN3C(=O)C3CCN(Cc4ccc(-n5c(O)nnc5-c5cc(C(C)C)c(O)cc5O)cc4)CC3)nc3c2CCN(c2cccc4cccc(Cl)c24)C3)C[C@@H]1CC#N` [Compound 189, 2-((S)-1-acryloyl-4-(7-(8-chloronaphthalen-1-yl)-2-(((S)-1-(1-(4-(3-(2,4-dihydroxy-5-isopropylphenyl)-5-hydroxy-4H-1,2,4-triazol-4-yl)benzyl)piperidine-4-carbonyl)azetidin-2-yl)methoxy)-5,6,7,8-tetrahydropyrido[3,4-d]pyrimidin-4-yl)piperazin-2-yl)acetonitrile, trifluoroacetic acid]: the IC50 in test [1] was less than 100 nM; in test [3], greater than 1000 nM. For the same molecule, the EC50 in test [2] was greater than 1000 nM.
With `C=CC(=O)N1CCN(c2nc(OC[C@@H]3C[C@@H](NCc4ccc(-n5c(O)nnc5-c5cc(C(C)C)c(O)cc5O)cc4)CN3C)nc3c2CCN(c2cccc4cccc(Cl)c24)C3)C[C@@H]1CC#N` [Compound 215, 2-((S)-1-acryloyl-4-(7-(8-chloronaphthalen-1-yl)-2-(((2S,4R)-4-((4-(3-(2,4-dihydroxy-5-isopropylphenyl)-5-hydroxy-4H-1,2,4-triazol-4-yl)benzyl)amino)-1-methylpyrrolidin-2-yl)methoxy)-5,6,7,8-tetrahydropyrido[3,4-d]pyrimidin-4-yl)piperazin-2-yl)acetonitrile], the figures for the IC50 in test [1] and in test [3] were less than 100 nM and 100 to 1000 nM, respectively. This molecule also had a 50% effective concentration (EC50) in test [2] of 100 to 1000 nM.
